The text below walks through data of BindingDB's records for doi:10.1021/jm051104t (University of Minnesota, 2006).

By IC50 is commonly meant the concentration needed to halve the response being measured.

The structures appear in SMILES notation.

The test in a line: Cytotoxicity against HEK293 cells transfected with recombinant AOR by MTT assay. On the technique in general: Formazan colour is commonly taken as a measure of viable cells.
On to `CC1=CC2=C(C)C3(CC3)[C@](C)(O)C(=O)C2=C1`, for which the IC50 stood at 5000 nM.
As for `CC1=CC2=C(C)C3(CC3)[C@@](C)(O)C(=O)C2=C1` [ACYLFULVENE], the figure is 95 nM; as for `CC1=C(CO)C2=C(C)C3(CC3)[C@](C)(O)C(=O)C2=C1`, 1420 nM.
For `CC1=C(CO)C2=C(C)C3(CC3)[C@@](C)(O)C(=O)C2=C1` [IROFULVEN] the value was 55 nM.
